The subject of assay [1] is HGC-27. Briefly: Cytotoxicity against human HGC27 cells assessed as reduction in cell viability after 48 hrs by MTT assay. The class given is functional, cell-based. Particulars: HGC-27, 48 h.
For assay [2], the system named is Lewis lung carcinoma cell line. Briefly: Antitumor activity against mouse LLC cells implanted in mouse assessed as tumor growth inhibition at 7.5 mg/kg, ip qd treated for 7 consecutive days starting from 24 hrs post tumor inoculum relative to control. The class given is functional. Particulars: read-out: TGI.
In assay [3] the test system is CCRF S-180. Description: Antitumor activity against mouse S180 cells implanted in mouse assessed as tumor growth inhibition at 7.5 mg/kg, ip qd treated for 7 consecutive days starting from 24 hrs post tumor inoculum relative to control. It counts as functional. Particulars: CCRF S-180, ip, read-out: TGI.
The target of assay [4] is NAD-dependent protein deacylase sirtuin-5, mitochondrial (Homo sapiens) (UniProt Q9NXA8). Briefly: Inhibition of SIRT5 (unknown origin) at 30 uM relative to control.
Assay [5] has the same target. Briefly: Inhibition of SIRT5 (unknown origin) at 100 uM relative to control.
Assay [6] concerns HepG2. Briefly: Antiproliferative activity against human HepG2 cells at 4 uM after 48 hrs by MTT assay relative to control. It counts as functional. On the technique in general: Formazan colour is commonly taken as a measure of viable cells.
In assay [7] the test system is HepG2. Briefly: Antiproliferative activity against human HepG2 cells at 5 uM after 48 hrs by MTT assay relative to control. The class given is functional.
Assay [8] concerns SMMC-7721. Description: Antiproliferative activity against human SMMC7721 cells after 48 hrs by MTT assay. It counts as functional, cell-based. The conditions noted are these: SMMC-7721, 48 h.

What is called IC50 is the midpoint of a concentration-inhibition curve. Usually inhibition stands for the share of the control response that was lost under treatment. Higher therefore signals a strong effect.

Chain of NAD-dependent protein deacylase sirtuin-5, mitochondrial (Homo sapiens) (Q9NXA8 37-310 limits assumed): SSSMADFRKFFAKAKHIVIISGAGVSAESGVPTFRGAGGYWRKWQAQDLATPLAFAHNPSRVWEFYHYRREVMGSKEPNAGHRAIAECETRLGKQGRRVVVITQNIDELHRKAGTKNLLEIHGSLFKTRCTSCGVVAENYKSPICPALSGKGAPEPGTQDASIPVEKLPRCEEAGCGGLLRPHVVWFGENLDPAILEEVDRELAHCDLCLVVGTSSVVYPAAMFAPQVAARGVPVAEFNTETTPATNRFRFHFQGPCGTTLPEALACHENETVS

Regarding `COc1cc(-c2nc(Cn3cc(CN4C(=O)c5ccc(C)cc5C4=O)nn3)cc3c2[nH]c2ccccc23)cc(OC)c1OC`, the IC50 in assay [1] stood at 5.44 µM. In addition, the figures for the inhibition in vivo at 7.5 mg/kg in assay [2] and in assay [3] were 46.9% and 40%, respectively.
Take `O=C(NCCn1c2ccccc2c2ccncc21)Nc1ccc(C(=O)O)cc1`: the inhibition in assay [4] stood at 35%; in assay [5] it was 52%.
As for `CCCN(Cc1ccc(C(=O)NO)cc1)C(=O)c1cc2c([nH]c3ccccc32)c(-c2ccc(OC)cc2)n1`, the Activity in assay [6] worked out at 61.8%; in assay [7], 34.5%.
Regarding `Cc1nc(C(=O)NCCCCCNC(=O)c2ccccc2O)cc2c1[nH]c1ccccc12`, the IC50 in assay [8] was found to be 6.97 µM.

Source of the values: ChEMBL document CHEMBL4325913, “Norharmane as a potential chemical entity for development of anticancer drugs” (Eur J Med Chem, 2019).
